Assay results: patent publication US20230210999A1, “TARGETED PROTEASE DEGRADATION (TED) PLATFORM” (EUBULUS BIOTHERAPEUTICS INC., priority 2020, published 2023)
Read-outs that look alike come from different tables or passages of the source.

What was measured:
U-87MG cells = assay: Cell proliferation experiment, U-87MG; assay type: cell-based; details: Homo sapiens, 72 h, read-out: Inhibitory activity IC50 of tested compounds on U-87MG cells
Procedure: (§1) Reagents: RPMI-1640 medium, McCoy's 5A medium, IMDM medium, MEM medium, L-15 medium, fetal bovine serum. Penicillin-Streptomycin double antibody, trypsin, etc., 2-mercaptoethanol, NEAA, pyruvate, etc.
(§2) The cells were cultured in conventional ways, and the cells should be passed at least 2 generations before plating. Cells at the logarithmic growth phase were collected, prepared into single cell suspensions and counted. The concentration of cells was adjusted to the desired concentration, and cells were inoculated into a 96-well cell culture plate at 100 μl per well. 100 μL of complete medium of the test compound were added to each well, set up 2 duplicate wells for each concentration, and diluted with a 5-fold gradient, and continued to culture for 72 h. All cells were subjected to IC50 test for corresponding samples. The experimental results are shown in Test Example 4.
(§3) The fluorescence intensity of each well was detected using the Alarm blue method, and IC50 was calculated.
(§4) IC50 was calculated according to the following formula:
(§5) Y=Max+(Min−Max)/[1+(X/IC50)×Slope]
(§6) wherein Min, Max and Slope represent the minimum, maximum and slope respectively.

NCIH82 cells = assay: Cell proliferation experiment, NCI-H82; assay type: cell-based, human; details: Homo sapiens, NCI-H82, 72 h, read-out: Inhibitory activity IC50 of tested compounds on NCIH82 cells
Outline: (§7)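 Cells were passaged at least twice, harvested in log phase and plated in 96 wells. Compound in complete medium was added at 5-fold gradient concentrations, duplicates per concentration. After 72 h culture, Alamar blue fluorescence was measured and IC50 fitted.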

MV4;11 cells = assay: Cell proliferation experiment (Alamar blue, 72 h), MV4;11; assay type: cell-based, human; details: Homo sapiens, MV4-11, 72 h, read-out: Inhibitory activity IC50 of tested compounds on MV4;11 cells
Outline: as §7

Daudi cells = assay: Cell proliferation experiment, Daudi; assay type: cell-based, human; details: Homo sapiens, Daudi, 72 h, 72 h, read-out: Inhibitory activity IC50 of tested compounds on Daudi cells
Outline: as §7

HT-29 cells = assay: Cell proliferation experiment, HT-29; assay type: cell-based; details: Homo sapiens, read-out: Inhibitory activity IC50 of tested compounds on HT-29 cells
Procedure: as §1, §2, §3, §4, §5, §6

CC[C@@H]1C(=O)N(C)c2cnc(Nc3ccc(C(=O)NCCCC(N)C(=O)Nc4cccc5c4CN(C4CCC(=O)NC4=O)C5=O)cc3OC)nc2N1C1CCCC1 (stereo in doubt) [Compound 856]
IC50 (U-87MG cells; U-87MG cells): > 1000 nM
IC50 (NCIH82 cells; NCIH82 cells, 72 h): > 1000 nM
IC50 (MV4;11 cells; MV4;11 cells, 72 h): 100 to 1000 nM
IC50 (Daudi cells; Daudi cells): > 1000 nM

CC[C@@H]1C(=O)N(C)c2cnc(Nc3ccc(C(=O)NCCOCCOCCOCCNCCC(=O)N[C@H](C(=O)N4C[C@H](O)C[C@H]4C(=O)NCc4ccc(-c5scnc5C)cc4)C(C)(C)C)cc3OC)nc2N1C1CCCC1 [Compound 850]
IC50 (U-87MG cells; U-87MG cells): > 1000 nM
IC50 (NCIH82 cells; NCIH82 cells, 72 h): > 1000 nM
IC50 (MV4;11 cells; MV4;11 cells, 72 h): > 1000 nM
IC50 (HT-29 cells; HT-29 cells, 72 h): > 1000 nM
IC50 (Daudi cells; Daudi cells): > 1000 nM

CC[C@@H]1C(=O)N(C)c2cnc(Nc3ccc(C(=O)NCCOCCNCC(=O)N[C@H](C(=O)N4C[C@H](O)C[C@H]4C(=O)NCc4ccc(-c5scnc5C)cc4)C(C)(C)C)cc3OC)nc2N1C1CCCC1 [Compound 851]
IC50 (U-87MG cells; U-87 MG): > 1000 nM
IC50 (NCIH82 cells): > 1000 nM
IC50 (MV4;11 cells): 100 to 1000 nM
IC50 (HT-29 cells; HT-29, 72 h): > 1000 nM
IC50 (Daudi cells): > 1000 nM

CC[C@@H]1C(=O)N(C)c2cnc(Nc3ccc(C(=O)NC4CCN(CCNCCOCC(=O)N[C@H](C(=O)N5C[C@H](O)C[C@H]5C(=O)NCc5ccc(-c6scnc6C)cc5)C(C)(C)C)CC4)cc3OC)nc2N1C1CCCC1 [Compound 852]
IC50 (U-87MG cells; U-87MG cells): > 1000 nM
IC50 (NCIH82 cells; NCIH82 cells, 72 h): > 1000 nM
IC50 (MV4;11 cells; MV4;11 cells, 72 h): > 1000 nM
IC50 (HT-29 cells; HT-29 cells, 72 h): > 1000 nM
IC50 (Daudi cells; Daudi cells): > 1000 nM

CC[C@@H]1C(=O)N(C)c2cnc(Nc3ccc(C(=O)NCCOCCNCCC(=O)N[C@H](C(=O)N4C[C@H](O)C[C@H]4C(=O)NCc4ccc(-c5scnc5C)cc4)C(C)(C)C)cc3OC)nc2N1C1CCCC1 [Compound 853]
IC50 (U-87MG cells; U-87MG cells): > 1000 nM
IC50 (NCIH82 cells; NCIH82 cells, 72 h): > 1000 nM
IC50 (MV4;11 cells; MV4;11 cells, 72 h): > 1000 nM
IC50 (HT-29 cells; HT-29 cells, 72 h): > 1000 nM
IC50 (Daudi cells; Daudi cells): > 1000 nM

CC[C@@H]1C(=O)N(C)c2cnc(Nc3ccc(C(=O)NCCOCCOCCOCCNCC(=O)N[C@H](C(=O)N4C[C@H](O)C[C@H]4C(=O)NCc4ccc(-c5scnc5C)cc4)C(C)(C)C)cc3OC)nc2N1C1CCCC1 [Compound 854]
IC50 (U-87MG cells; U-87 MG): > 1000 nM
IC50 (NCIH82 cells): > 1000 nM
IC50 (MV4;11 cells): 100 to 1000 nM
IC50 (HT-29 cells; HT-29, 72 h): > 1000 nM
IC50 (Daudi cells): > 1000 nM

CC[C@@H]1C(=O)N(C)c2cnc(Nc3ccc(C(=O)NC4CCN(CCOCCNC5CN(c6cccc7c6C(=O)N(C6CCC(=O)NC6=O)C7=O)C5)CC4)cc3OC)nc2N1C1CCCC1 (stereo partly shown) [Compound 857]
IC50 (U-87MG cells; U-87MG cells): 500 to 1000 nM
IC50 (NCIH82 cells; NCIH82 cells, 72 h): ≤ 1000 nM
IC50 (MV4;11 cells; MV4;11 cells, 72 h): ≤ 100 nM
IC50 (HT-29 cells; HT-29 cells, 72 h): > 1000 nM
IC50 (Daudi cells; Daudi cells): 100 to 1000 nM

CC[C@@H]1C(=O)N(C)c2cnc(Nc3ccc(C(=O)NC4CCN(CCOCCNCCC(=O)NC(C(=O)N5C[C@H](O)C[C@H]5C(=O)NCc5ccc(-c6scnc6C)cc5)C(C)(C)C)CC4)cc3OC)nc2N1C1CCCC1 (stereo partly shown) [Compound 858]
IC50 (U-87MG cells; U-87MG cells): > 1000 nM
IC50 (NCIH82 cells; NCIH82 cells, 72 h): > 1000 nM
IC50 (MV4;11 cells; MV4;11 cells, 72 h): > 1000 nM
IC50 (HT-29 cells; HT-29 cells, 72 h): > 1000 nM
IC50 (Daudi cells; Daudi cells): > 1000 nM

CC[C@@H]1C(=O)N(C)c2cnc(Nc3ccc(C(=O)NC4CCN(CCOCCNCC(=O)NC(C(=O)N5C[C@H](O)C[C@H]5C(=O)NCc5ccc(-c6scnc6C)cc5)C(C)(C)C)CC4)cc3OC)nc2N1C1CCCC1 (stereo partly shown) [Compound 859]
IC50 (U-87MG cells; U-87 MG): > 1000 nM
IC50 (NCIH82 cells): > 1000 nM
IC50 (MV4;11 cells): 100 to 1000 nM
IC50 (HT-29 cells; HT-29, 72 h): > 1000 nM
IC50 (Daudi cells): > 1000 nM

CC[C@@H]1C(=O)N(C)c2cnc(Nc3ccc(C(=O)NC4CCN(CCOCC[C@@H](N)C(=O)Nc5cccc6c5CN(C5CCC(=O)NC5=O)C6=O)CC4)cc3OC)nc2N1C1CCCC1 (stereo partly shown) [Compound 863]
IC50 (U-87MG cells; U-87MG cells): > 1000 nM
IC50 (NCIH82 cells; NCIH82 cells, 72 h): ≤ 1000 nM
IC50 (MV4;11 cells; MV4;11 cells, 72 h): 100 to 1000 nM
IC50 (HT-29 cells; HT-29 cells, 72 h): > 1000 nM
IC50 (Daudi cells; Daudi cells): 100 to 1000 nM

CC[C@@H]1C(=O)N(C)c2cnc(Nc3ccc(C(=O)NC4CCN(CCOCCO)CC4)cc3OC)nc2N1C1CCCC1 [Compound 864]
IC50 (U-87MG cells; U-87MG cells): ≤ 100 nM
IC50 (NCIH82 cells; NCIH82 cells, 72 h): ≤ 1000 nM
IC50 (MV4;11 cells; MV4;11 cells, 72 h): ≤ 100 nM
IC50 (HT-29 cells; HT-29 cells, 72 h): ≤ 300 nM
IC50 (Daudi cells; Daudi cells): ≤ 100 nM

CC[C@@H]1C(=O)N(C)c2cnc(Nc3ccc(C(=O)NCCOCCNCCOCCC#Cc4cccc5c4CN(C4CCC(=O)NC4=O)C5=O)cc3OC)nc2N1C1CCCC1 (stereo partly shown) [Compound 896]
IC50 (U-87MG cells; U-87MG cells): 500 to 1000 nM
IC50 (NCIH82 cells; NCIH82 cells, 72 h): > 1000 nM
IC50 (HT-29 cells; HT-29 cells, 72 h): > 1000 nM
IC50 (Daudi cells; Daudi cells): 100 to 1000 nM
